Assay results reported in patent US12583826B2, “[(1,5-diphenyl-1H-1,2,4-triazol-3-yl)oxy]acetic acid derivatives and salts thereof, crop protection compositions comprising them, methods for producing them and use thereof as safeners” (Bayer Aktiengesellschaft, priority 2019, dated 2026).

What was measured:
Format in all cases: in vivo
[1] = tested on: summer wheat (TRZAS; cv. Triso); test: Relative action (efficacy code): reduction of damage by mesosulfuron-methyl on summer wheat; set-up: key: 0: no reduction in damage (appearance corresponding to the herbicide control); 1: slight reduction in damage; 2: distinct reduction in damage; 3: significant reduction in damage; 4: complete reduction in damage (appearance corresponding to the untreated control); settings: then mesosulfuron-methyl 40-60 g/ha, visual, 9-13 days after application
Procedure: 2.3 Relative Action of Selected Compounds of the Invention Using the Example of Reduction of Damage by Mesosulfuron-Methyl on Summer Wheat (TRZAS) The seeds of the crop plants to be treated are laid out in sandy loam in plastic pots (diameter ˜4 cm), covered with soil and grown in a greenhouse under good conditions for germination and growth. The trial plants were treated at the early leaf stage (BBCH10—BBCH12). In the course of this, the inventive compounds of the general formula (I) formulated in the form of wettable powders (WP) were sprayed onto the above-ground parts of the plants as an aqueous suspension with a water application rate corresponding to 800 l/ha with addition of wetting agent (e.g. 0.2% Genapol-LRO or 0.2% Mero) in the specified dose. This was followed by the application of the herbicide. For this purpose, mesosulfuron-methyl, formulated in the form of water-dispersible granules (WG), was sprayed onto the above-ground parts of the plants in the form of an aqueous dispersion with a water application rate corresponding to 800 l/ha with addition of wetting agent (e.g. 0.2% Genapol-LRO or 1 l/ha Biopower) in a dose of 40-60 g/ha. The dose of the herbicide was chosen here such that it causes visually apparent damage (min. 30%, max. 75%) compared to untreated crop plants at the evaluation time on a control group of crop plants without safener treatment that were included in the same trial. After application, the plants were cultivated under good growth conditions in a greenhouse. 9-13 days after application, the efficacy of the test compounds was assessed visually. For this purpose, the appearance of the plants treated with the test compound and herbicide was compared to the corresponding herbicide controls (without safener; with clearly visible damage) and the untreated controls (without damage). The damage-reducing effect of the test compounds was expressed here in graded efficacy codes according to the following scheme: • 0: no reduction in damage (appearance corresponding to the herbicide control) • 1: slight reduction in damage • 2: distinct reduction in damage • 3: significant reduction in damage • 4: complete reduction in damage (appearance corresponding to the untreated control) The trials show clear efficacy of the substances of the invention with regard to the reduction in damage to the summer wheat crop plant (TRZAS; cv. Triso) caused by the herbicide mesosulfuron-methyl: […]

[2] = tested on: summer barley (HORVS; cv. Montoya); test: Relative action (efficacy code): reduction of damage by mesosulfuron-methyl on summer barley; set-up: key: 0: no reduction in damage (appearance corresponding to the herbicide control); 1: slight reduction in damage; 2: distinct reduction in damage; 3: significant reduction in damage; 4: complete reduction in damage (appearance corresponding to the untreated control); settings: then mesosulfuron-methyl 40-60 g/ha, visual, 9-13 days after application
Procedure: 2.4 Relative Action of Selected Compounds of the Invention Using the Example of Reduction of Damage by Mesosulfuron-Methyl on Summer Barley (HORVS) The seeds of the crop plants to be treated are laid out in sandy loam in plastic pots (diameter ˜4 cm), covered with soil and grown in a greenhouse under good conditions for germination and growth. The trial plants were treated at the early leaf stage (BBCH10—BBCH12). In the course of this, the inventive compounds of the general formula (I) formulated in the form of wettable powders (WP) were sprayed onto the above-ground parts of the plants as an aqueous suspension with a water application rate corresponding to 800 l/ha with addition of wetting agent (e.g. 0.2% Genapol-LRO or 0.2% Mero) in the specified dose. This was followed by the application of the herbicide. For this purpose, mesosulfuron-methyl, formulated in the form of water-dispersible granules (WG), was sprayed onto the above-ground parts of the plants in the form of an aqueous dispersion with a water application rate corresponding to 800 l/ha with addition of wetting agent (e.g. 0.2% Genapol-LRC) or 1 l/ha Biopower) in a dose of 40-60 g/ha. The dose of the herbicide was chosen here such that it causes visually apparent damage (min. 30%, max. 75%) compared to untreated crop plants at the evaluation time on a control group of crop plants without safener treatment that were included in the same trial. After application, the plants were cultivated under good growth conditions in a greenhouse. 9-13 days after application, the efficacy of the test compounds was assessed visually. For this purpose, the appearance of the plants treated with the test compound and herbicide was compared to the corresponding herbicide controls (without safener; with clearly visible damage) and the untreated controls (without damage). The damage-reducing effect of the test compounds was expressed here separately for 2 repeats in graded efficacy codes according to the following scheme: • 0: no reduction in damage (appearance corresponding to the herbicide control) • 1: slight reduction in damage • 2: distinct reduction in damage • 3: significant reduction in damage • 4: complete reduction in damage (appearance corresponding to the untreated control) The trials show clear efficacy of the substances of the invention with regard to the reduction in damage to the summer barley crop plant (HORVS; cv. Montoya) caused by the herbicide mesosulfuron-methyl: […]

[3] = tested on: summer wheat (TRZAS; cv. Triso); test: Absolute action: reduction of damage by mesosulfuron-methyl on summer wheat, greenhouse post-emergence; settings: for Absolute reduction in herbicide damage (damage without safener minus damage with safener): mesosulfuron-methyl 20 g/ha; for Herbicide damage with compound of the formula (I): then mesosulfuron-methyl 20 g/ha, visual 0-100% scale, 14-21 days after application
In short: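 Safener compounds (WP, aqueous suspension, 800 l/ha, 0.2% wetting agent) sprayed post-emergence on wheat at BBCH10–12, followed by mesosulfuron-methyl WG at 20 g/ha. Greenhouse-grown; damage scored visually 0–100% versus untreated plants 14–21 days after application, averaged over 2–3 repeats.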

[4] = tested on: summer barley (HORVS; cv. Montoya); test: Absolute action: reduction of damage by mesosulfuron-methyl on summer barley, greenhouse post-emergence; settings: for Absolute reduction in damage (difference): mesosulfuron-methyl 20 g/ha, damage without minus with safener; for Herbicide damage with compound of the formula (I) (%): then mesosulfuron-methyl 20 g/ha, visual 0-100% scale, 14-21 days after application
In short: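 Greenhouse barley at BBCH10–12 was sprayed with the WP-formulated compound at 800 l/ha plus 0.2% wetting agent, then with mesosulfuron-methyl WG at 20 g/ha. Damage was scored visually 14–21 days later on a 0–100% scale versus untreated plants. Scores are the mean of 2–3 repeats.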

[5] = safener dose 100 (unit not given)
[6] = safener dose 500 (unit not given)

O=C(O)COc1nc(-c2ccccc2)n(-c2c(F)cccc2F)n1 [I.3-43]
Efficacy of the safener (efficacy code) [1, 5]: 2 | Efficacy of the safener (efficacy code) [1, 6]: 2 | Efficacy of the safener (efficacy code) ([2]; safener 100 g/ha): 2 | Efficacy of the safener (efficacy code) ([2]; safener 500 g/ha): 2

COC(=O)COc1nc(-c2ccc(F)cc2F)n(-c2ccc(Cl)cc2)n1 [I.40-7, Methyl {[1-(4-chlorophenyl)-5-(2,4-difluorophenyl)-1H-1,2,4-triazol-3-yl]oxy}acetate]
Efficacy of the safener (efficacy code) [1, 5]: 4 | Efficacy of the safener (efficacy code) [1, 6]: 4 | Efficacy of the safener (efficacy code) ([2]; safener 100 g/ha): 2 | Efficacy of the safener (efficacy code) ([2]; safener 500 g/ha): 4

COC(=O)COc1nc(-c2ccc(F)cc2F)n(-c2ccc(F)cc2Cl)n1 [I.40-48]
Efficacy of the safener (efficacy code) [1, 5]: 2 | Efficacy of the safener (efficacy code) ([2]; safener 100 g/ha): 2

COC(=O)COc1nc(-c2ccc(F)cc2F)n(-c2ccc(Cl)cc2F)n1 [I.40-49]
Efficacy of the safener (efficacy code) [1, 5]: 4 | Efficacy of the safener (efficacy code) [1, 6]: 4 | Efficacy of the safener (efficacy code) ([2]; safener 100 g/ha): 4 | Efficacy of the safener (efficacy code) ([2]; safener 500 g/ha): 4

CCOC(=O)COc1nc(-c2ccc(F)cc2F)n(-c2ccc(Cl)cc2F)n1 [I.41-49]
Efficacy of the safener (efficacy code) [1, 5]: 2 | Efficacy of the safener (efficacy code) ([2]; safener 100 g/ha): 2

O=C(O)COc1nc(-c2ccc(F)cc2F)n(-c2c(F)cccc2F)n1 [I.42-43]
Efficacy of the safener (efficacy code) [1, 5]: 2 | Efficacy of the safener (efficacy code) [1, 6]: 2 | Efficacy of the safener (efficacy code) ([2]; safener 100 g/ha): 2 | Efficacy of the safener (efficacy code) ([2]; safener 500 g/ha): 2

O=C(O)COc1nc(-c2ccc(F)cc2F)n(-c2ccc(Cl)cc2F)n1 [I.42-49]
Efficacy of the safener (efficacy code) [1, 5]: 2 | Efficacy of the safener (efficacy code) [1, 6]: 2 | Efficacy of the safener (efficacy code) ([2]; safener 100 g/ha): 2 | Efficacy of the safener (efficacy code) ([2]; safener 500 g/ha): 3

O=C(O)COc1nc(-c2ccc(Cl)cc2F)n(-c2c(F)cccc2F)n1 [I.48-43]
Efficacy of the safener (efficacy code) [1, 6]: 2 | Efficacy of the safener (efficacy code) ([2]; safener 500 g/ha): 2

CCOC(=O)COc1nc(-c2cc(F)cc(F)c2)n(-c2ccc(F)cc2F)n1 [I.53-38]
Absolute reduction in herbicide damage (damage without safener minus damage with safener) ([3]; safener 1000 g/ha): 20% | Herbicide damage with compound of the formula (I) ([3]; safener 1000 g/ha): 23% | Absolute reduction in damage (difference) ([4]; safener 250 g a.i./ha): 30% | Herbicide damage with compound of the formula (I) (%) ([4]; safener 250 g a.i./ha): 30% | Absolute reduction in damage (difference) ([4]; safener 1000 g a.i./ha): 40% | Herbicide damage with compound of the formula (I) (%) ([4]; safener 1000 g a.i./ha): 20%

O=C(O)COc1nc(-c2cc(F)cc(F)c2)n(-c2ccc(F)cc2)n1 [I.54-4]
Absolute reduction in herbicide damage (damage without safener minus damage with safener) ([3]; safener 250 g/ha): 23% | Herbicide damage with compound of the formula (I) ([3]; safener 250 g/ha): 20% | Absolute reduction in damage (difference) ([4]; safener 250 g a.i./ha): 23% | Herbicide damage with compound of the formula (I) (%) ([4]; safener 250 g a.i./ha): 37%

COC(=O)COc1nc(-c2c(F)cccc2F)n(-c2ccc(Cl)cc2F)n1 [I.55-49]
Efficacy of the safener (efficacy code) [1, 5]: 2 | Efficacy of the safener (efficacy code) [1, 6]: 2 | Efficacy of the safener (efficacy code) ([2]; safener 100 g/ha): 2 | Efficacy of the safener (efficacy code) ([2]; safener 500 g/ha): 2

O=C(O)COc1nc(-c2c(F)cccc2F)n(-c2c(F)cccc2F)n1 [I.57-43]
Efficacy of the safener (efficacy code) [1, 6]: 2 | Efficacy of the safener (efficacy code) ([2]; safener 500 g/ha): 2

O=C(O)COc1nc(-c2c(F)cccc2F)n(-c2ccc(Cl)cc2F)n1 [I.57-49]
Efficacy of the safener (efficacy code) ([2]; safener 100 g/ha): 2 | Efficacy of the safener (efficacy code) ([2]; safener 500 g/ha): 2

COC(=O)CCOC(=O)COc1nc(-c2ccc(Cl)cc2Cl)n(-c2ccc(Cl)cc2F)n1 [I.61-49, Methyl 3-(2-{[1-(4-chloro-2-fluorophenyl)-5-(2,4-dichlorophenyl)-1H-1,2,4-triazol-3-yl]oxy}acetoxy)propanoate]
Efficacy of the safener (efficacy code) [1, 5]: 2 | Efficacy of the safener (efficacy code) ([2]; safener 100 g/ha): 2

O=C(COc1nc(-c2ccc(F)cc2F)n(-c2ccc(Cl)cc2F)n1)OCC1CCOC1 (stereo not shown) [I.63-49]
Efficacy of the safener (efficacy code) [1, 5]: 2 | Efficacy of the safener (efficacy code) ([2]; safener 100 g/ha): 2

CCCCOC(=O)COc1nc(-c2ccc(F)cc2F)n(-c2ccc(Cl)cc2F)n1 [I.66-49]
Efficacy of the safener (efficacy code) [1, 5]: 2 | Efficacy of the safener (efficacy code) ([2]; safener 100 g/ha): 2

COCCOC(=O)COc1nc(-c2ccc(F)cc2F)n(-c2ccc(F)cc2Cl)n1 [I.67-48]
Efficacy of the safener (efficacy code) [1, 5]: 2 | Efficacy of the safener (efficacy code) ([2]; safener 100 g/ha): 2

COCCOC(=O)COc1nc(-c2ccc(F)cc2F)n(-c2ccc(Cl)cc2F)n1 [I.67-49]
Efficacy of the safener (efficacy code) [1, 5]: 2 | Efficacy of the safener (efficacy code) [1, 6]: 2 | Efficacy of the safener (efficacy code) ([2]; safener 100 g/ha): 2 | Efficacy of the safener (efficacy code) ([2]; safener 500 g/ha): 2

CCOC(=O)CCOC(=O)COc1nc(-c2ccc(F)cc2F)n(-c2ccc(Cl)cc2F)n1 [I.69-49]
Efficacy of the safener (efficacy code) [1, 5]: 2 | Efficacy of the safener (efficacy code) ([2]; safener 100 g/ha): 2
